According to patent publication US10758534B2 (Vertex Pharmaceuticals Incorporated, priority 2014, dated 2020):

Each molecule was assayed against T1, F508del (Homo sapiens, UniProt P13569, DEL508-508) (assay: Protocol 1: membrane potential optical assay (FLIPR III, voltage sensing dye), identification of potentiator compounds). Details: Table 3, compounds of Table 1.
T1 construct: expressed in transfected cells
Type: cell-based
In short: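 Gating potentiation is read as a membrane-potential fluorescence change (FLIPR III, voltage-sensing dye) after one forskolin addition under a Cl− gradient, with gluconate replacing chloride, pH 7.4. Cells are F508del-expressing NIH3T3 mouse fibroblasts held 24 h at 27 °C and exposed to compound before dye loading.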

T1 sequence (P13569 with tags, fused parts or gaps DEL508-508): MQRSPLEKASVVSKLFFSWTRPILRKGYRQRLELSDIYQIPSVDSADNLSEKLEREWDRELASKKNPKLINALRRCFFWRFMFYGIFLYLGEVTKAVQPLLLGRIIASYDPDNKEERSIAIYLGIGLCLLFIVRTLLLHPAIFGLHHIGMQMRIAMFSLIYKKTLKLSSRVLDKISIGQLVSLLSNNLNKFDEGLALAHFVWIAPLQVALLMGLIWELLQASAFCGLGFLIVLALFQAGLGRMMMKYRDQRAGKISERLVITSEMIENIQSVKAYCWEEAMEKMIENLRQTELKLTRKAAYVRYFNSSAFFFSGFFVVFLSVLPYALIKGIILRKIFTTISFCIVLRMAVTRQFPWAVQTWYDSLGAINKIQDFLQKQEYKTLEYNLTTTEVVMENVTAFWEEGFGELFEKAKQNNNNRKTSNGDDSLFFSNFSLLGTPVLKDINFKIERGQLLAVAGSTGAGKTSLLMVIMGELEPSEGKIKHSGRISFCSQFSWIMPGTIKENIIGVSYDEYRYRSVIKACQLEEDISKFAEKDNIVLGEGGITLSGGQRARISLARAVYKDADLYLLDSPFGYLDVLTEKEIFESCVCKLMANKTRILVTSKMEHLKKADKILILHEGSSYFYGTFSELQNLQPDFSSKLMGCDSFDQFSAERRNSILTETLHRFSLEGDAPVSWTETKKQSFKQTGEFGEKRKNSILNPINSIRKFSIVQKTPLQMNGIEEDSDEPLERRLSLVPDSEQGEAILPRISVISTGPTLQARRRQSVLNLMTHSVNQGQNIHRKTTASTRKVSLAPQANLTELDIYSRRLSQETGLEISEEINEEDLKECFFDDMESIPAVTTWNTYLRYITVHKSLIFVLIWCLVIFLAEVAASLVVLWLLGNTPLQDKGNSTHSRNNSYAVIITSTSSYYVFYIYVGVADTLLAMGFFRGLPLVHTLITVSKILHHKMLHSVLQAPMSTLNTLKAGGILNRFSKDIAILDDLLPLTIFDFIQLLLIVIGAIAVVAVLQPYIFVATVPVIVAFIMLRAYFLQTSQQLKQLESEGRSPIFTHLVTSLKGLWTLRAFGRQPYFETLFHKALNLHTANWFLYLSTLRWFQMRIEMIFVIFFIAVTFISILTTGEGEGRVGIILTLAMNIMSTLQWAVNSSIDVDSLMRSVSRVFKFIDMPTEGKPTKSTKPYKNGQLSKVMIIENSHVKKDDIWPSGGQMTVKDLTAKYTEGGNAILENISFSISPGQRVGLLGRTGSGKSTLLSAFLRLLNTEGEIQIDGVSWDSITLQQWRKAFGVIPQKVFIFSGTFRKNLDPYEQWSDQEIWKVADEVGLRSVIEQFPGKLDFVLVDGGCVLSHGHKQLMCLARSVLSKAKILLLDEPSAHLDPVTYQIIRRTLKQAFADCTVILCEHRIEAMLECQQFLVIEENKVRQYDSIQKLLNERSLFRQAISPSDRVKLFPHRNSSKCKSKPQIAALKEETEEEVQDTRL

Row | EC30 | Structure (SMILES)
1 | +++ (“+++” means <3 uM) | Cc1cc(C)c(Oc2nc(C(C)(C)C)ccc2C(=O)NS(=O)(=O)c2nccnc2N)c(C)c1 [Compound 1208, N-(3-aminopyrazin-2-yl) sulfonyl-6-tert-butyl-2-(2,4,6-trimethylphenoxy)pyridine-3-carboxamide]
2 | +++ (“+++” means <3 uM) | CC(C)Oc1ccc(-c2ccc(C(=O)NS(=O)(=O)c3cccc(N)n3)c(N3CCC[C@H](c4ccccc4)C3)n2)cn1 [Compound 1209]
3 | ++ (“++” means between 3 uM and 10 uM) | C=C(C)c1ccc(C(=O)NS(=O)(=O)c2cccc(N)n2)c(Oc2c(C)cc(C)cc2C)n1 [Compound 1211, N-[(6-amino-2-pyridyl)sulfonyl]-6-isopropenyl-2-(2,4,6-trimethylphenoxy)pyridine-3-carboxamide]
4 | +++ (“+++” means <3 uM) | COc1ccc(-c2ccc(C(=O)NS(=O)(=O)c3cccc(N)n3)c(Oc3c(C)cc(C)cc3C)n2)c(C)n1 [Compound 1212, N-[(6-amino-2-pyridyl)sulfonyl]-6-(6-methoxy-2-methyl-3-pyridyl)-2-(2,4,6-trimethylphenoxy)pyridine-3-carboxamide]
5 | ++ (“++” means between 3 uM and 10 uM) | Cc1ccc(Oc2nc(-c3cc(F)cc(OC(C)C)c3)ccc2C(=O)NS(=O)(=O)c2cc[nH]n2)c(C)c1 [Compound 1213, 2-(2,4-dimethylphenoxy)-6-(3-fluoro-5-isopropoxy-phenyl)-N-(1H-pyrazol-3-ylsulfonyl)pyridine-3-carboxamide]
6 | ++ (“++” means between 3 uM and 10 uM) | CCOC1CCN(c2nc(-c3ccc(OC(C)C)nc3)ccc2C(=O)NS(=O)(=O)c2cccc(N)n2)CC1 [Compound 1214, N-[(6-amino-2-pyridyl)sulfonyl]-2-(4-ethoxy-1-piperidyl)-6-(6-isopropoxy-3-pyridyl)pyridine-3-carboxamide]
7 | ++ (“++” means between 3 uM and 10 uM) | COc1ccc(-c2ccc(C(=O)NS(=O)(=O)c3cccc(N)n3)c(N3[C@H](C)CC[C@@H]3C)n2)cc1 [Compound 1215, N-[(6-amino-2-pyridyl)sulfonyl]-2-[(2S,5R)-2,5-dimethylpyrrolidin-1-yl]-6-(4-methoxyphenyl)pyridine-3-carboxamide]
8 | + (“+” means greater than 10 uM) | CC(C)(C)c1ccc(C(=O)NS(=O)(=O)c2cccc(N)c2)c(-c2ccc(F)c(F)c2)n1 [Compound 1217, N-(3-aminophenyl)sulfonyl-6-tert-butyl-2-(3,4-difluorophenyl)pyridine-3-carboxamide]
9 | ++ (“++” means between 3 uM and 10 uM) | CC(C)(C)c1ccc(C(=O)NS(=O)(=O)c2cccc(N)n2)c(C2CCCC2)n1 [Compound 1219, N-[(6-amino-2-pyridyl)sulfonyl]-6-tert-butyl-2-cyclopentyl-pyridine-3-carboxamide]
10 | +++ (“+++” means <3 uM) | Cc1cc(C)c(Oc2nc(-n3cc(C)cn3)ccc2C(=O)NS(=O)(=O)c2cccc(N)n2)c(C)c1 [Compound 1220, N-[(6-amino-2-pyridyl)sulfonyl]-6-(4-methylpyrazol-1-yl)-2-(2,4,6-trimethylphenoxy)pyridine-3-carboxamide]
11 | +++ (“+++” means <3 uM) | Cc1cc(C)c(Oc2nc(-c3ccccc3Cl)ccc2C(=O)NS(=O)(=O)c2cccc(N)n2)c(C)c1 [Compound 1221, N-[(6-amino-2-pyridyl)sulfonyl]-6-(2-chlorophenyl)-2-(2,4,6-trimethylphenoxy)pyridine-3-carboxamide]
12 | +++ (“+++” means <3 uM) | Cc1cc(C)c(Oc2nc3c(cc2C(=O)NS(=O)(=O)c2nccnc2N)CCCC3(C)C)c(C)c1 [Compound 1223, N-(3-aminopyrazin-2-yl)sulfonyl-8,8-dimethyl-2-(2,4,6-trimethylphenoxy)-6,7-dihydro-5H-quinoline-3-carboxamide]
13 | +++ (“+++” means <3 uM) | COc1ccc(OC)c(-c2ccc(C(=O)NS(=O)(=O)c3cccc(N)n3)c(Oc3c(C)cc(C)cc3C)n2)c1 [Compound 1225, N-[(6-amino-2-pyridyl)sulfonyl]-6-(2,5-dimethoxyphenyl)-2-(2,4,6-trimethylphenoxy)pyridine-3-carboxamide]
14 | +++ (“+++” means <3 uM) | Cc1cc(C)c(Oc2nc(C3(C)CC3)ccc2C(=O)NS(=O)(=O)c2ccc[nH]c2=O)c(C)c1 [Compound 1226, 6-(1-methylcyclopropyl)-N-[(2-oxo-1H-pyridin-3-yl)sulfonyl]-2-(2,4,6-trimethylphenoxy)pyridine-3-carboxamide]
15 | ++ (“++” means between 3 uM and 10 uM) | Cc1cc(C)c(Oc2nc(-c3ccc(CN)cc3)ccc2C(=O)NS(=O)(=O)c2cccc(N)n2)c(C)c1 [Compound 1228, 6-[4-(aminomethyl)phenyl]-N-[(6-amino-2-pyridyl)sulfonyl]-2-(2,4,6-trimethylphenoxy)pyridine-3-carboxamide]
16 | ++ (“++” means between 3 uM and 10 uM) | CC(C)Oc1ccc(-c2ccc(C(=O)NS(=O)(=O)c3cccc(N)n3)c(N3CCC[C@@H]3C(F)(F)F)n2)cn1 [Compound 1230, N-[(6-amino-2-pyridyl)sulfonyl]-6-(6-isopropoxy-3-pyridyl)-2-[(2R)-2-(trifluoromethyl)pyrrolidin-1-yl]pyridine-3-carboxamide]
17 | +++ (“+++” means <3 uM) | Cc1ccc(-c2nc3c(cc2C(=O)NS(=O)(=O)c2cccc(N)c2)CCCC3(C)C)cc1 [Compound 1231, (3-aminophenyl)sulfonyl-[8,8-dimethyl-2-(p-tolyl)-6,7-dihydro-5H-quinoline-3-carbonyl]azanide]
18 | +++ (“+++” means <3 uM) | Cc1cc(C)c(Oc2nc(C(C)C)ccc2C(=O)NS(=O)(=O)c2cccc(N)n2)c(C)c1 [Compound 1232, N-[(6-amino-2-pyridyl)sulfonyl]-6-isopropyl-2-(2,4,6-trimethylphenoxy)pyridine-3-carboxamide]
19 | ++ (“++” means between 3 uM and 10 uM) | Cc1cc(C)c(Oc2ncc(Cc3ccccc3)cc2C(=O)NS(=O)(=O)c2cccc(N)n2)c(C)c1 [Compound 1233, N-[(6-amino-2-pyridyl)sulfonyl]-5-benzyl-2-(2,4,6-trimethylphenoxy)pyridine-3-carboxamide]
20 | ++ (“++” means between 3 uM and 10 uM) | COc1cccc(-c2ccc(C(=O)NS(=O)(=O)c3ccn[nH]3)c(N3[C@H](C)CC[C@@H]3C)n2)n1 [Compound 1236, 2-[(2S,5R)-2,5-dimethylpyrrolidin-1-yl]-6-(6-methoxy-2-pyridyl)-N-(1H-pyrazol-5-ylsulfonyl)pyridine-3-carboxamide]
21 | ++ (“++” means between 3 uM and 10 uM) | Cc1cc(C)c(CN2Cc3ccccc3C2(C)C(=O)NS(=O)(=O)c2ccc[nH]c2=O)c(C)c1 (stereo not drawn) [Compound 1237, 1-methyl-N-[(2-oxo-1H-pyridin-3-yl)sulfonyl]-2-[(2,4,6-trimethylphenyl)methyl]isoindoline-1-carboxamide]

Row | Structure (SMILES) | EC30
22 | CC(C)COc1cc(F)cc(-c2ccc(C(=O)NS(=O)(=O)c3cccc(N)n3)c(N3C[C@@H](C)C[C@H](C)C3)n2)c1 [Compound 1210, N-[(6-amino-2-pyridyl)sulfonyl]-2-[(3S,5S)-3,5-dimethyl-1-piperidyl]-6-(3-fluoro-5-isobutoxy-phenyl)pyridine-3-carboxamide] | +++ (“+++” means <3 uM)
23 | CC(C)COc1cc(F)cc(-c2ccc(C(=O)NS(=O)(=O)c3cccc(N)n3)c(O[C@@H]3C[C@H]4CC[C@@H]3C4)n2)c1 [Compound 1216, N-[(6-amino-2-pyridyl)sulfonyl]-6-(3-fluoro-5-isobutoxy-phenyl)-2-[(1R,2R,4S)-norbornan-2-yl]oxy-pyridine-3-carboxamide] | +++ (“+++” means <3 uM)
24 | CCC1CCCN1c1nc(-c2cc(F)cc(OCC(C)C)c2)ccc1C(=O)NS(=O)(=O)c1cccc(N)n1 (stereo not drawn) [Compound 1218, N-[(6-amino-2-pyridyl)sulfonyl]-2-(2-ethylpyrrolidin-1-yl)-6-(3-fluoro-5-isobutoxy-phenyl)pyridine-3-carboxamide] | +++ (“+++” means <3 uM)
25 | CCC1CCC(C)N1c1nc(-c2cc(F)cc(OCC(C)C)c2)ccc1C(=O)NS(=O)(=O)c1cccc(N)n1 (stereo not drawn) [Compound 1222, N-[(6-amino-2-pyridyl)sulfonyl]-2-(2-ethyl-5-methyl-pyrrolidin-1-yl)-6-(3-fluoro-5-isobutoxy-phenyl)pyridine-3-carboxamide] | +++ (“+++” means <3 uM)
26 | CC(C)COc1cncc(-c2ccc(C(=O)NS(=O)(=O)c3cccc(N)n3)c(N3[C@H](C)CC[C@@H]3C)n2)c1 [Compound 1224, N-[(6-amino-2-pyridyl)sulfonyl]-2-[(2S,5R)-2,5-dimethylpyrrolidin-1-yl]-6-(5-isobutoxy-3-pyridyl)pyridine-3-carboxamide] | ++ (“++” means between 3 uM and 10 uM)
27 | CC(C)COc1cc(F)cc(-c2ccc(C(=O)NS(=O)(=O)c3cccc(N)n3)c(OC3CC4CCC3C4)n2)c1 (stereo not drawn) [Compound 1227, N-[(6-amino-2-pyridyl)sulfonyl]-6-(3-fluoro-5-isobutoxy-phenyl)-2-norbornan-2-yloxy-pyridine-3-carboxamide] | +++ (“+++” means <3 uM)
28 | CC(C)COc1cc(F)cc(-c2ccc(C(=O)NS(=O)(=O)c3cccc(N)n3)c(OCC3CC3)n2)c1 [Compound 1229, N-[(6-amino-2-pyridyl)sulfonyl]-2-(cyclopropylmethoxy)-6-(3-fluoro-5-isobutoxy-phenyl)pyridine-3-carboxamide] | +++ (“+++” means <3 uM)
29 | CC(C)COc1cc(-c2ccc(C(=O)NS(=O)(=O)c3ccn[nH]3)c(N3[C@H](C)CC[C@@H]3C)n2)ccc1Cl [Compound 1234, 6-(4-chloro-3-isobutoxy-phenyl)-2-[(2S,5R)-2,5-dimethylpyrrolidin-1-yl]-N-(1H-pyrazol-5-ylsulfonyl)pyridine-3-carboxamide] | +++ (“+++” means <3 uM)
30 | CC(C)COc1cc(F)cc(-c2ccc(C(=O)NS(=O)(=O)c3cccc(N)n3)c(OC(C)C3CCC3)n2)c1 (stereo not drawn) [Compound 1238, N-[(6-amino-2-pyridyl)sulfonyl]-2-(1-cyclobutylethoxy)-6-(3-fluoro-5-isobutoxy-phenyl)pyridine-3-carboxamide] | +++ (“+++” means <3 uM)
